Assay results reported in US20260234164A1, “BIPHENYL COMPOUND AS IMMUNOMODULATOR, PREPARATION METHOD THEREFOR AND USE THEREOF” (SHENZHEN CHIPSCREEN BIOSCIENCES CO., LTD., priority 2021, published 2026).
Blank lines part the entries; values can stand above or below the compound they belong to.

How the values were obtained:
[1] = system: PD-1/PD-L1-mediated T cell activation inhibitory signal; assay: CHO-PD-L1-CD3L / Jurkat-PD-1-NFAT co-culture luciferase reporter assay; assay type: cell-based; settings: Homo sapiens, co-culture 6 h, read-out: EC50 blocking PD-1/PD-L1-mediated T cell activation inhibitory signal
Description: In order to detect the effect of the interaction between PD-1 and PD-L1 on T cell activation signals in the immune response, CHO-PD-L1-CD3L cells stably expressing human PD-L1 molecules and anti-CD3 single-chain antibody (ScFv) and Jurkat-PD-1-NFAT cells stably expressing human PD-1 molecule and NFAT reporter gene were constructed. When the two kinds of cells were co-incubated, the binding of anti-CD3ScFv on the surface of CHO cells and the membrane CD3 molecules of Jurkat cells would transmit an activation signal to Jurkat cells, but simultaneously, the binding of PD-L1 on the surface of CHO cells and PD-1 molecules on the surface of Jurkat cells would transmit an inhibitory signal inward to prevent expression of the luciferase reporter gene. When immune checkpoint antibodies or small molecule inhibitors were added, the binding of PD-1 and PD-L1 was blocked, the NFAT pathway activated by T cell activation signal mediated by cross-linking of CD3ScFv antibody and CD3 was no longer affected by the inhibitory signal, and the downstream luciferase reporter gene started to be expressed. A chemiluminescent signal proportional to reporter gene activation was detected by adding a catalytic substrate.
CHO-PD-L1-CD3L cells expressing human PD-L1 molecule and anti-CD3 single-chain antibody (ScFv) and Jurkat-PD-1-NFAT cells stably expressing human PD-1 molecule and NFAT reporter gene were independently constructed and provided by Dr. Chen Bo (KeyMed Bioscience (Chengdu) Co., Ltd.). Puromycin (Cat #540411) and Hygromycin B (Cat #V900372) for stable culture of transfected cells were purchased from Sigma, PMA (Cat #P1585) was purchased from Sigma, anti-human PD-L1 antibody (Cat #GMP-A066) was purchased from Novoprotein Company. Luciferase substrate solution (Cat #E6485) and luciferase-specific cell lysis solution 5× (Cat #E1531) were purchased from Promega. Fluorescence detection instrument Tecan (Spark 10M) was purchased from Switzerland Tecan Company.
(1) The day before the experiment, 100 μL of CHO-PD-L1-CD3L cells were inoculated in each well of a 96-well cell culture plate (about 4×10^4 cells/well) with a medium of DMEM/F12 containing 10% FBS, 8 μg/mL puromycin and 200 μg/mL hygromycin B, and cultured overnight at 37° C.
(2) The test compounds were diluted with 0.1% PBST into different concentration gradients, added into 96-well plates, and pre-incubated for 30 min. Jurkat-PD-1-NFAT cell count was adjusted to 2×10^5 cells/mL with the RPMI 1640 complete medium containing 10% FBS, […]8 μg/mL puromycin and 200 μg/mL hygromycin B. 100 ng/mL PMA (the stock solution was prepared with DMSO to a concentration of 10 mg/mL) was added to amplify T cell activation signal. 100 μL of the above Jurkat-PD-1-NFAT cells was added to each well of the 96-well plate for co-culture.
(3) When detecting the reaction, a control group was provided, including a solvent control without adding test compounds and a positive control with addition of anti-human PD-1 antibody as the experimental system. All detections were performed with duplicates.
(4) After continuous incubation at 37° C. for 6 h, 40 μL of 5× cell lysate was directly added, and mixed well. The plate was placed at room temperature for 10 min to completely lyse the cells. 50 μL of the lysed cell solution was transferred to a fluorescence detection plate, and added with 30 μL of luciferase substrate solution. The chemiluminescence detection program on the fluorescence detector was immediately selected for detection.
(5) The inhibition rate of T cell activation signal at the cellular level of the test compounds was calculated as follows: Inhibition rate of T cell activation signal (%)=(the original value of chemiluminescence in the detection well−solvent control)/(the highest original value of chemiluminescence detected in the compound detection well−solvent control)×100%. […]

[2] = Tumor tissue distribution assay in MC38-PD-L1 tumor-bearing mice; assay type: in vivo, B-hPD-1/hPD-L1 humanized mice; settings: 50 mg/kg oral once/day
Excerpt: 16 B-hPD-1/hPD-L1 humanized female mice, aged 6-8 weeks were purchased from Biocytogen Jiangsu Gene Biotechnology Co., Ltd. After 1 week of adaptation, the mice were subcutaneously inoculated with MC38-PD-L1 cells at 2×10^6 cells/site. After the tumor grew to about […], the mice were divided into 4 groups, 4 mice in each group. The test compounds were formulated in a vehicle containing 5% DMSO, 60% PEG400 and 35% purified water, including I-1 and 3 control molecules Example 17, Compound 14 (INCB086550), and Example 180. The compounds were orally administered at 50 mg/kg, once/day. The blood and tumor tissue were collected 4 h and 24 h after administration on the 18th day. A certain amount of tissue was weighed, and added with phosphate-buffered saline (PBS) solution for homogenization. After the sample was processed, it was analyzed by LC-MS/MS to determine the concentration of the compound in plasma and tissue.

[3] = Pharmacokinetic assay after repeated oral administration; assay type: in vivo, B-hPD-1/hPD-L1 mice; settings: female, B-hPD-1/hPD-L1, mouse; plasma, 50 mg/kg oral once a day, after administration on the 18th day
Description: Twenty-four female B-hPD-1/hPD-L1 mice aged 6-8 weeks were purchased from Biocytogen Jiangsu Gene Biotechnology Co., Ltd. The mice were randomly divided into 4 groups, 6 mice in each group. The test compounds were prepared in a vehicle containing 5% DMSO, 60% PEG400 and 35% purified water, including I-1 and 3 control molecules Example 17, Compound 14 (INCB086550), and Example 180. The compounds were administered orally at 50 mg/kg, once a day. The blood was collected alternately through the fundus venous plexus after the administration on the 18th day. The blood collection time points were 15 min, 30 min, 1 h, 2 h, 4 h, 8h, 24 h and 32h. About 0.1 mL of blood was collected in a centrifuge tube (anticoagulated with sodium heparin), and centrifuged at 5000 rpm for 5 min. Then the plasma was separated, and frozen at −20° C. for later detection. After the plasma samples were processed, the concentration of the compounds in the plasma was determined by liquid chromatography-mass spectrometry (LC-MS/MS). The pharmacokinetic parameters were calculated using Phoenix WinNonlin 7.0.

EC50 [1]: 13.8 nM
Ratio of I-1 to control molecule (tumor tissue concentration) ([2]; 4 h after administration on the 18th day): 1.0
Ratio of I-1 to control molecule (tumor tissue concentration) ([2]; 24 h after administration on the 18th day): 1.0
concentration at 4 h ([2]; female, B-hPD-1/hPD-L1 humanized, mouse, tumor tissue, 4 h after administration on the 18th day): 39200 ng/g
concentration at 24 h ([2]; female, B-hPD-1/hPD-L1 humanized, mouse, tumor tissue, 24 h after administration on the 18th day): 27200 ng/g
AUC(0-t) [3]: 123 µg·h/mL
MRT [3]: 13.5 h
half-life [3]: 10.3 h
Structure (SMILES): [2H]C([2H])([2H])OCC12CCC(CCN3CCc4c(nc(C(=O)Nc5cccc(-c6cccc(NC(=O)c7nc8c(n7C)CCN(CCC79CCC(C(=O)O)(CC7)C9)C8)c6Cl)c5Cl)n4C)C3)(CC1)C2 [Compound I-1, 4-(2-(2-((2,2′-dichloro-3′-(5-(2-(4-((methoxy-d3)methyl)bicyclo[2.2.1]heptane-1-yl)ethyl)-1-methyl-4,5,6,7-tetrahydro-1H-imidazo[4,5-c]pyridine-2-carboxamido)-[1,1′-biphenyl]-3-yl)carbamoyl)-1-methyl-1,4,6,7-tetrahydro-5H-imidazo[4,5-c]pyridin-5-yl)ethyl)bicyclo[2.2.1]heptane-1-carboxylic acid]

EC50 [1]: 58.4 nM
Structure (SMILES): [2H]C([2H])([2H])OCC12CCC(CCN3CCc4c(nc(C(=O)Nc5cccc(-c6cccc(NC(=O)c7nc8c(n7C([2H])([2H])[2H])CCN(CCC79CCC(C(=O)O)(CC7)C9)C8)c6C)c5Cl)n4C([2H])([2H])[2H])C3)(CC1)C2 [Compound I-11, 4-(2-(2-((2′-chloro-3′-(5-(2-(4-((methoxy-d3)methyl)bicyclo[2.2.1]heptane-1-yl)ethyl)-1-(methyl-d3)-4,5,6,7-tetrahydro-1H-imidazo[4,5-c]pyridine-2-carboxamido)-2-methyl-[1,1′-biphenyl]-3-yl)carbamoyl)-1-(methyl-d3)-1,4,6,7-tetrahydro-5H-imidazo[4,5-c]pyridin-5-yl)ethyl)bicyclo[2.2.1]heptane-1-carboxylic acid]

EC50 [1]: 47.9 nM
Structure (SMILES): [2H]C([2H])([2H])n1c(C(=O)Nc2cccc(-c3cccc(NC(=O)c4nc5c(n4C([2H])([2H])[2H])CCN(CCC46CCC(COC)(CC4)C6)C5)c3Cl)c2C)nc2c1CCN(CCC13CCC(C(=O)O)(CC1)C3)C2 [Compound I-12, 4-(2-(2-((2′-chloro-3′-(5-(2-(4-(methoxymethyl)bicyclo[2.2.1]heptane-1-yl)ethyl)-1-(methyl-d3)-4,5,6,7-tetrahydro-1H-imidazo[4,5-c]pyridine-2-carboxamido)-2-methyl-[1,1′-biphenyl]-3-yl)carbamoyl)-1-(methyl-d3)-1,4,6,7-tetrahydro-5H-imidazo[4,5-c]pyridin-5-yl)ethyl)bicyclo [2.2.1]heptane-1-carboxylic acid]

EC50 [1]: 26.2 nM
Structure (SMILES): [2H]c1c([2H])c(NC(=O)c2nc3c(n2C([2H])([2H])[2H])CCN(CCC24CCC(COC([2H])([2H])[2H])(CC2)C4)C3)c(Cl)c(-c2c([2H])c([2H])c([2H])c(NC(=O)c3nc4c(n3C([2H])([2H])[2H])CCN(CCC35CCC(C(=O)O)(CC3)C5)C4)c2Cl)c1[2H] [Compound I-13, 4-(2-(2-((2,2′-dichloro-3′-(5-(2-(4-((methoxy-d3)methyl)bicyclo[2.2.1]heptane-1-yl)ethyl)-1-(methyl-d3)-4,5,6,7-tetrahydro-1H-imidazo[4,5-c]pyridine-2-carboxamido)-[1,1′-biphenyl]-3-yl-4,4′, 5,5′,6,6′-d6)carbamoyl)-1-(methyl-d3)-1,4,6,7-tetrahydro-5H-imidazo[4,5-c]pyridin-5-yl)ethyl)bicyclo[2.2.1]heptane-1-carboxylic acid]
